Paper PMC4111374 (Journal of Medicinal Chemistry, 2014)

Experiments:
[1] = water solubility of hydrochloride salts; format: physicochemical
hERG channel = hERG channel (Homo sapiens, UniProt Q12809); conditions: for interaction with hERG: [3H]-dofetilide binding assay; for ratio of IC50 for hERG inhibition to IC50 for inhibition of LS174T cell proliferation: human
[2] = tested on: LS174T colon cancer cells; conditions: earlier report; cited from earlier work
[3] = cited from earlier work
[4] = tested on: LS174T colon cancer cells; test: LS174T cell proliferation; format: cell-based; conditions: for IC50: Homo sapiens, LS174T, read-out: inhibition of LS174T cell proliferation IC50, LS174T colon cancer cells, 1 to 300 nM, triplicate

hERG channel, sequence (Q12809 whole entry): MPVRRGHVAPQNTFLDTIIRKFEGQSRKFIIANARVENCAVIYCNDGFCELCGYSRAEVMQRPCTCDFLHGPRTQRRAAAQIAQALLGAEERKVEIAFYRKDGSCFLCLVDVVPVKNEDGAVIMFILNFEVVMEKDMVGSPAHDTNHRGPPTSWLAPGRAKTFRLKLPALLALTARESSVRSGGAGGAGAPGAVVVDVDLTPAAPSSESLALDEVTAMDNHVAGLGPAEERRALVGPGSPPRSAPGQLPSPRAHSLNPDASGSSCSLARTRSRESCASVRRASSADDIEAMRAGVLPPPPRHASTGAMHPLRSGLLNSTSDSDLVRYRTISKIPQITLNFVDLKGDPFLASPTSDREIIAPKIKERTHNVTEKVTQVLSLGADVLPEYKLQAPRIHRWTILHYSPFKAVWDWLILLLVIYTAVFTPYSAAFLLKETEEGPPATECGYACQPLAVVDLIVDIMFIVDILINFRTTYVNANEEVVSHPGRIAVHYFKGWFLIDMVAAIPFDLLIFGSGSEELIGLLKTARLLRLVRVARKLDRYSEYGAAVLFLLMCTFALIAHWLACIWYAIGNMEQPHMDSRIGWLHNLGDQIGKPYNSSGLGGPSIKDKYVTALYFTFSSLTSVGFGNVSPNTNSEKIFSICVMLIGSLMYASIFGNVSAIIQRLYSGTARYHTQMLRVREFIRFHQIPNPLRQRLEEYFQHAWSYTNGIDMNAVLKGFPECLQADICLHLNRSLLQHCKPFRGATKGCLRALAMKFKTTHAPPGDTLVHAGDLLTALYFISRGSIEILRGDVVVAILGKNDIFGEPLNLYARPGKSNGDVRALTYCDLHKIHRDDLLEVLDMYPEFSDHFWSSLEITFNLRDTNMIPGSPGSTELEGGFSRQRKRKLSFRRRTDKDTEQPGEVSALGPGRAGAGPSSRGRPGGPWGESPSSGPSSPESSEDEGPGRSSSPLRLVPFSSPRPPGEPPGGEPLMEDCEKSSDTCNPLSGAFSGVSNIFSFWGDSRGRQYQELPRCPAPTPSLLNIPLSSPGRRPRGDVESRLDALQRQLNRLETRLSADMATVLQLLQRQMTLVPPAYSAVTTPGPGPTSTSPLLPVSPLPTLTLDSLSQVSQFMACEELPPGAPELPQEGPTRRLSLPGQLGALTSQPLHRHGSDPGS

Row | Compound | interaction with hERG (hERG channel) | ratio of IC50 for hERG inhibition to IC50 for inhibition of LS174T cell proliferation (hERG channel) | further results
1 | CN(C)c1ccc(/C=C/c2c(F)cccc2Cl)cn1 [FIDAS 8a, (E)-5-(2′-Chloro-6′-fluorostyryl)-2-(N,N-dimethylamino)pyridine] | did not interact appreciably with hERG | 12.7 × 10^3 | water solubility of hydrochloride salt [1]: water-soluble
2 | CNc1ccc(/C=C/c2c(F)cccc2Cl)cn1 [FIDAS 8b, (E)-5-(2′-Chloro-6′-fluorostyryl)-2-(N-methylamino)pyridine] | did not interact appreciably with hERG | 5.0 × 10^3 | water solubility of hydrochloride salt [1]: water-soluble
3 | CN(C)c1ccc(/C=C/c2c(F)cccc2F)cc1 [FIDAS 1a, (E)-4-(2′,6′-difluorostyryl)-N,N-dimethylaniline] |  |  | in vitro activity in LS174T cells [2]: low micromolar range; half-life in vivo [3]: reasonable half-life; oral bioavailability ([3]; in vivo): good oral bioavailability
4 | CN(C)c1ncc(/C=C/c2c(F)cccc2F)cn1 [FIDAS 10a, (E)-5-(2′,6′-Difluorostyryl)-2-(N,N-dimethylamino)pyrimidine] |  | 0.5 × 10^3 | 
5 | CNc1ccc(/C=C/c2c(F)cccc2Cl)cc1 [FIDAS 2b] | did not interact appreciably with hERG | 6.6 × 10^3 | IC50 [4]: < 0.01 µM; IC50 for the inhibition of LS174T cells relative to 1a ([4]; LS174T cells): 4 fold
6 | CN(C)c1ccc(/C=C/c2c(F)cccc2Cl)cc1 [FIDAS 2a] |  |  | in vitro activity relative to 3a ([4]; LS174T cells, relative to 3a): 10 fold
7 | CNc1ccc(/C=C/c2c(F)cccc2F)cc1 [FIDAS 1b] | did not interact appreciably with hERG | 6.5 × 10^3 | IC50 [4]: < 0.01 µM; IC50 for the inhibition of LS174T cells relative to 1a ([4]; LS174T cells): 4 fold
8 | CN(C)c1ccc(/C=C/c2c(F)cccc2Cl)nc1 [FIDAS 5a, (E)-2-(2′-Chloro-6′-fluorostyryl)-5-(N,N-dimethylamino)pyridine] |  | 1.0 × 10^3 | 
